Source: patent US5053404A, “Novel steroid derivatives, pharmaceutical compositions containing them and process for preparing same” (Richter Gedeon Vegyeszeti Gyar R. T., priority 1989, dated 1991)

Key:
[1] = system: thymus; test: Thymus involution (systemic side effect) in croton oil-induced contact dermatitis model; type: in vivo, rat; settings: 48th hour
Text: (§1) Two principal (essential) demands are set up against topically used steroid antiinflammatory drugs: a) they should be as active as possible in various animal experiments used for investigating the antiinflammatory action; and b) they should induce the lowest harmful systemic side effect. This latter effect can be well characterized by the thymus weight-decreasing action (involution). The possibly lowest toxicity (i.e. the possibly highest LD50 value) is an essential demand for any active agent (drug) used in therapy.
(§2) 2) The croton oil-induced contact dermatitis model
(§3) Infantile female rats weighing 45 to 55 g were used. Animals had previously been selected for this test, the ear weight of which increased at least by 100% under effect of a treatment with 2% croton oil.
(§4) The test compounds were dissolved in a 2% croton oil mixture in various concentrations and then applied onto the ears of the animals. The control group was treated only with the croton oil inducing inflammation. Six hours after treatment the ears of the animals were cut off and weighed. For evaluation, the diminution of the ear weight increase was expressed as "percentage of inhibition", in comparison to the control treated with croton oil only. In the 48th hour the thymi of the animals were excised and the harmful systemic side effect of the test compounds was evaluated by comparing their thymus weight to that of the control animals.

[2] = system: experimental asthma; test: Experimental asthma model (ovalbumin); type: in vivo, guinea-pig; settings: 50 mg/kg i.p. 20 hours before i.v. ovalbumin provocation; for Dyspnoea (percentage occurrence): control 33; for Survival: control 66
Text: 4) The experimental asthma model
This test was used to investigate the antiasthmatic effect of the test compounds.
It is known that by ovalbumin (OA) treatment an experimental asthma can be induced on guinea-pigs which is accompanied by dyspnoea and causes the death of the animals in severe cases. This test is useful to detect an eventual antiasthmatic effect of the test compounds.
Guinea-pigs of both sexes weighing 300 to 400 g each were used. The experimental animals were sensitized by i.p. ovalbumin (10/ μg of OA+100 mg of aluminum hydroxide/animal) and after 30 days they were provoked by the intravenous (i.v.) administration of 100 mg/kg of OA. Both the test compounds and budesonide used as reference substance were given 50 mg/kg i.p. dose 20 hours before the provocation. The percentage occurrence of dyspnoea and the survival were observed.

[3] = system: croton oil-induced contact dermatitis; test: Croton oil-induced contact dermatitis model, ear weight; type: in vivo, rat; settings: for Ear weight / Inhibition (of ear weight increase): topical on ear, 6 hours; for Inhibition (of ear weight increase): vs croton oil control; for Relative activity: relative to budesonide = 100, on 10 μg/ml line
Description: as §2, §3, §4

[4] = system: thymus; test: Thymus involution (systemic side effect) in local granuloma sac model; type: in vivo, rat; settings: 10th day
Text: as §1
(§5) 3) The local granuloma sac model
(§6) Groups consisting of 10 female RG Hann Wistar rats each weighing 130 to 150 g were used. After shaving the back of the animals 25 ml of air were injected beneath the back skin and 1 ml of 2% croton oil inducing inflammation was introduced to the air sac. After 5 days the content of the sac was removed by suction and once 3 doses each of the glucocorticoids to be tested or budesonide respectively, in a volume of 0.5 ml suspension in Tween 80 were administered by an injection syringe. On the 10th day following the start of the experiment the animals were sacrificed and the exudate liquid of the sac (expressed as ml) was measured. The percentage of the antiinflammatory effect was calculated based on the decrease in the volume of exudate related to that of the control.
Then, the thymi of the animals were excised and the harmful systemic side effect of the test compounds was calculated as a percentage based on the comparison of the thymus weight of animals treated with the test compounds to that of the untreated control group.

[5] = Comparative acute toxicity (LD50), rats; settings: rat, in vivo, 2-week observation
Description: (§7) 1) Comparative study on the acute toxicity
(§8) Animal groups consisting of 10 CFLP mice or RG Hann Wistar rats each of both sexes were used. The doses causing the death of 50% of the animals (LD50 values) within a 2-week observation period following subcutaneous (s.c.) or oral (p.o.) administration were determined.

[6] = system: local granuloma sac; test: Local granuloma sac model, exudate (antiinflammatory effect); type: in vivo, rat; settings: for Exudate / Inhibition (decrease in volume of exudate): 10th day; for Inhibition (decrease in volume of exudate): vs control; for Relative activity: relative to budesonide = 100, on 2.00 μg/sac line
Description: as §5
This method was used to investigate the antiexudative action of the topically administered glucocorticoids.
as §6, with “After shaving the back of the animals 25 ml of air were injected beneath the back skin and 1 ml of 2% croton oil inducing inflammation was introduced to the air sac.” left out

[7] = Comparative acute toxicity (LD50), mice; settings: mouse, in vivo, 2-week observation
Description: as §7, §8

Row | Structure (SMILES) | Thymus involution ([1]; 1 μg/ml topical on ear) [%] | Thymus involution ([1]; 10 μg/ml topical on ear) [%] | Thymus involution ([1]; 100 μg/ml topical on ear) [%] | Dyspnoea (percentage occurrence) [2] [%] | Survival [2] [%] | Ear weight ([3]; 1 μg/ml in 2% croton oil) [mg] | Inhibition (of ear weight increase) ([3]; 1 μg/ml) [%] | Ear weight ([3]; 10 μg/ml in 2% croton oil) [mg] | Inhibition (of ear weight increase) ([3]; 10 μg/ml) [%] | Ear weight ([3]; 100 μg/ml in 2% croton oil) [mg] | Inhibition (of ear weight increase) ([3]; 100 μg/ml) [%] | Relative activity [3] | Thymus involution ([4]; 0.22 μg/sac) [%] | Thymus involution ([4]; 2.00 μg/sac) [%] | Thymus involution ([4]; 18.00 μg/sac) [%] | LD50 at 336 h ([5]; po, female) [mg/kg] | LD50 at 336 h ([5]; po, male) [mg/kg] | LD50 at 336 h ([5]; sc, female) [mg/kg] | LD50 at 336 h ([5]; sc, male) [mg/kg] | Exudate ([6]; 0.22 μg/sac) [mL] | other results
1 | CCCC1O[C@@H]2C[C@H]3[C@@H]4CCC5=CC(=O)C=C[C@]5(C)[C@H]4[C@@H](O)C[C@]3(C)[C@]2(C(=O)CO)O1 (stereo partly drawn) [Budesonide, (22RS)-11β,21-dihydroxy-16α,17-butylidenedioxypregna-1,4-dien-3,20-dione, reference compound] | 9.2 | 3.9 | 26.1 | 20 | 60 | 144.71 ± 2.0 | 19.43 | 127.78 ± 2.0 | 39.53 | 117.07 ± 2.7 | 52.24 | 100 | 0 | 0 | 24.43 | 2110 | 3400 | 71.5 | 59.4 | 6.38 ± 0.4 | Inhibition (decrease in volume of exudate) ([6]; 0.22 μg/sac): 49.89%; Exudate ([6]; 2.00 μg/sac): 4.00 ± 0.3 mL; Inhibition (decrease in volume of exudate) ([6]; 2.00 μg/sac): 68.58%; Exudate ([6]; 18.00 μg/sac): 1.84 ± 0.5 mL; Inhibition (decrease in volume of exudate) ([6]; 18.00 μg/sac): 85.55%; Relative activity [6]: 100; LD50 at 336 h ([7]; po, female): 1360 mg/kg; LD50 at 336 h ([7]; po, male): 1080 mg/kg; LD50 at 336 h ([7]; sc, female): 109 mg/kg; LD50 at 336 h ([7]; sc, male): 131 mg/kg
2 | CCCC1O[C@@H]2C=C3[C@@H]4CCC5=CC(=O)C=C[C@]5(C)[C@H]4[C@@H](O)C[C@]3(C)[C@]2(C(=O)CO)O1 (stereo partly drawn) [Ex. No. 2, 11β,16α,17,21-tetrahydroxypregna-1,4,14-trien-3,20-dion-16,17-cyclic butyraldehyde acetal] | 0 | 0 | 9.8 | 14 | 43 | 144.60 ± 2.8 | 19.56 | 131.10 ± 2.7 | 35.59 | 118.20 ± 2.2 | 50.90 | 78 | 0 | 0 | 0 | > 3000 | > 4000 | 843 | 1210 | 7.47 ± 0.5 | Inhibition (decrease in volume of exudate) ([6]; 0.22 μg/sac): 41.32%; Exudate ([6]; 2.00 μg/sac): 5.10 ± 0.4 mL; Inhibition (decrease in volume of exudate) ([6]; 2.00 μg/sac): 59.94%; Exudate ([6]; 18.00 μg/sac): 1.36 ± 0.2 mL; Inhibition (decrease in volume of exudate) ([6]; 18.00 μg/sac): 89.32%; Relative activity [6]: 62; LD50 at 336 h ([7]; po, female): > 4000 mg/kg; LD50 at 336 h ([7]; po, male): > 4000 mg/kg; LD50 at 336 h ([7]; sc, female): 823 mg/kg; LD50 at 336 h ([7]; sc, male): 585 mg/kg
3 | CC(C)C1O[C@@H]2C=C3[C@@H]4CCC5=CC(=O)C=C[C@]5(C)[C@H]4[C@@H](O)C[C@]3(C)[C@]2(C(=O)CO)O1 (stereo partly drawn) [Ex. No. 6, 11β,16α,17,21-tetrahydroxypregna-1,4,14-trien-3,20-dion-16,17-cyclic isobutyraldehyde acetal] | 0 | 1.7 | 0 | 0 | 100 | 144.40 ± 3.5 | 19.80 | 126.90 ± 2.7 | 40.57 | 115.10 ± 2.6 | 54.57 | 118 | 4.98 | 4.98 | 6.22 | > 3000 | > 4000 | 164 | 162 | 6.52 ± 0.6 | Inhibition (decrease in volume of exudate) ([6]; 0.22 μg/sac): 48.79%; Exudate ([6]; 2.00 μg/sac): 5.08 ± 0.4 mL; Inhibition (decrease in volume of exudate) ([6]; 2.00 μg/sac): 60.10%; Exudate ([6]; 18.00 μg/sac): 1.69 ± 0.3 mL; Inhibition (decrease in volume of exudate) ([6]; 18.00 μg/sac): 86.73%; Relative activity [6]: 71; LD50 at 336 h ([7]; po, female): 2790 mg/kg; LD50 at 336 h ([7]; po, male): 2930 mg/kg; LD50 at 336 h ([7]; sc, female): 634 mg/kg; LD50 at 336 h ([7]; sc, male): 333 mg/kg
